This note sets out measurements from PMC12064818, “A general assay platform to study protein pharmacology using ligand-dependent structural dynamics” (Nature Communications, 2025).

This experiment has as its target T1, FLuc-C-HiBiT (Photinus pyralis, UniProt P08659).
T1 construct: firefly luciferase with C-terminal HiBiT tag, E. coli expressed
As to the kind of experiment: biochemical. The conditions noted are these: enzyme activity, 10 uM ATP; read-out: IC50 or SDR50 (mM) / FLuc E.

T1 sequence (P08659 whole entry, looked up): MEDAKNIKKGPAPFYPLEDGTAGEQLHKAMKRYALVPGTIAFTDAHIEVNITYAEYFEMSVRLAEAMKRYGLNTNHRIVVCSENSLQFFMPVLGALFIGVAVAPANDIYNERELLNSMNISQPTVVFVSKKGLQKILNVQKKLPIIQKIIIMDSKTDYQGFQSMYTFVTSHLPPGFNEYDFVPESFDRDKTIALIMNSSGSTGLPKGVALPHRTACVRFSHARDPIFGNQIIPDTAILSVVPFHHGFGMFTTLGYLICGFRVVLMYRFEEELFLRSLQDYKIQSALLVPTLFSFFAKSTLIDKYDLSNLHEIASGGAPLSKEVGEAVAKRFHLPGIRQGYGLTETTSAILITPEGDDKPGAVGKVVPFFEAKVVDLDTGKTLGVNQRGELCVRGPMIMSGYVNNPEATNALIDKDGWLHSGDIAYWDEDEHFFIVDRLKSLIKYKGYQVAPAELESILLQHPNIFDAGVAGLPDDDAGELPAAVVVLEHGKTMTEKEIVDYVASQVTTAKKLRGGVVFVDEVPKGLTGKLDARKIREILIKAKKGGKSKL

For the compound `CC(C)(C)n1cc(-c2cc(C(=O)N3C[C@H]4CC[C@H]3C4)c3ccccc3n2)cn1` [NCGC00432050-01], the IC50 is 7 µM.

Turning to `COc1ccc(-c2nc3cc(F)ccc3s2)cc1OC` [NCGC00344018-01], the IC50 is 1.57 µM.

For the compound `N#Cc1c(NC(=O)c2cccc3ccccc23)sc2c1CCCC2` [NCGC00242227-03], the IC50 is over 30 µM. As to `Cc1ccc(-c2nc(-c3ccccc3)no2)c(Cl)c1` [NCGC00085930-01], the IC50 was found to be 0.197 µM. The value for `CCc1ccc(Nc2nc(-c3ccccc3F)no2)cc1` [NCGC00422308-01] was 6.24 µM; that for `O=C(NCCc1ccccc1Cl)c1ccc2c(c1)nc1n2CCCCC1` [NCGC00133356-01] was 1.11 µM. Under `COc1ccc(-c2cnc3[nH]cc(CC(=O)N4CCN(c5ccccn5)CC4)c3c2)cc1` [NCGC00412443-01] stands 18 µM; under `Cc1ccc(-c2cc(C(=O)O)n(C)c2)cc1` [NCGC00432669-01], 9.89 µM.

As for `COc1ccc(-c2cn3nc(SCC(=O)Nc4cc(C)cc(C)c4)ccc3n2)cc1` [NCGC00134460-01], the IC50 was 5.56 µM. The value for `Cc1ccc(C2Cn3nnc(C(=O)N4CCC(C(=O)NC5CC5)CC4)c3CO2)cc1` (stereo not shown) [NCGC00449485-01] was 7.85 µM; that for `COc1ccc(-c2cc(N3CCCC(NC(=O)c4cc(OC)c(OC)c(OC)c4)C3)[nH]n2)cc1` (stereo not shown) [NCGC00437614-01] was 5.56 µM; that for `Cc1cc2nc(-c3cccc(NC(=O)COc4ccc(C(C)C)cc4)c3)oc2cc1C` [NCGC00102495-01] was 9.89 µM. The value for `CN1CCNc2cc(-c3ccc([S+](C)(=O)[O-])cc3)ncc2C1` [NCGC00411079-01] was over 30 µM; that for `CC(C)Oc1cccc(-c2cccc(COc3cnc4c(ccn4CC(=O)O)c3)c2)c1` [NCGC00418183-01] was 18 µM; that for `CN1CCCCCCN(C(=O)Nc2ccc3c(c2)OCCO3)CCC1=O` [NCGC00466735-01] was 9.89 µM.

`COc1ccc(-n2ncc3c(NC4CCCC4)ncnc32)cc1` [NCGC00139254-01]: the IC50 was determined as 1.76 µM.

Consider `COc1ccc(CCNc2nc3ccccc3c3nc(-c4cccc(C)c4)nn23)cc1OC` [NCGC00112564-01], for which the IC50 was 11.1 µM. As to `Cc1ccc2nc(-c3ccc4nc(-c5ccc(NC(=O)c6cccc(Cl)c6)cc5)sc4c3)sc2c1[S+](=O)([O-])O` [NCGC00386846-01], the IC50 worked out at 4.42 µM. Under `CC(C)c1ccc(C(=O)Nc2ccc(-c3nc4ccccc4s3)c(Cl)c2)cc1` [NCGC00101984-01] stands over 30 µM; under `COc1cc(C(=O)Nc2cc(C)c(O)c(-c3nc4ccccc4s3)c2)cc(OC)c1OC` [NCGC00103336-02], over 30 µM. The value for `Cc1cc(-c2cc3c(cn2)CN(Cc2c[nH]cn2)CCN3)ccn1` [NCGC00411148-01] was 18 µM. The value for `Cc1ccc(-c2nc(C(=O)N3CCN(c4ccccc4)CC3)no2)cc1` [NCGC00447113-01] was 11.1 µM; that for `Cn1cc(-c2ccc(Cl)cc2)cc1C(=O)O` [NCGC00432667-01] was over 30 µM. For the compound `C[C@H](C(=O)N1CCCC1)C1CC[C@@]2(C)Cc3sc(-c4ccccc4)nc3[C@@H](C)[C@@H]2[C@H]1O` (stereo partly shown) [NCGC00401417-01], the IC50 was found to be 1.97 µM. The value for `O=C(NCCc1ccccc1F)c1nc2sccn2c1Br` [NCGC00479849-01] was 7 µM; that for `O=C1c2cnc(-c3ccccc3)nc2OCCN1CC1CC1` [NCGC00413518-01] was 16.1 µM.

With `Oc1cc(-c2nc3ccccc3s2)cc2c1OCCN(Cc1cccn1-c1ncccn1)C2` [NCGC00239686-01], the IC50 is over 30 µM. As for `Nc1nc2c(nc(S)n2[C@@H]2O[C@H](CO)[C@@H](O)[C@H]2O)c(=O)[nH]1` [NCGC00096124-01], the IC50 was found to be 2.48 µM. The value for `CCOC(=O)c1ccc(NC(=O)c2nsc3ccccc23)cc1` [NCGC00113675-01] was 3.51 µM; that for `CCN1C(=O)CCc2cc(NC(=O)c3ccc(C(C)C)cc3)ccc21` [NCGC00425391-01] was 9.89 µM; that for `Cc1ccc(Cc2cn3cc(-c4ccccc4)nc3s2)cc1` [NCGC00102098-01] was 0.442 µM. Take `Cc1ccc(-n2ncc3c(N4CCN(C)CC4)ncnc32)cc1` [NCGC00139016-01]: the IC50 turned out to be 5.56 µM. Regarding `CN(Cc1nccs1)c1ccc(-c2nc(-c3ccccc3F)no2)cn1` [NCGC00425298-01], the IC50 is 9.89 µM. The value for `COC1CCOC2(CCN(C(=O)CCCc3ccccc3)CC2)C1` (stereo not shown) [NCGC00452766-01] was 15.7 µM; that for `Cc1nn(-c2ccc(C(C)C)cc2)c(C)c1[C@@H]1C=C[C@@H](NC(=O)NC(C)C)C1` [NCGC00399949-01] was 18 µM; that for `O=C(O)CCn1ncc2cc(OCc3ccc(-c4cccc(CO)c4)cc3)ccc21` [NCGC00418123-01] was 16.1 µM. The value for `Cc1ccc(-c2cc3c(=O)n(CCNC(=O)c4ccc(C)s4)ccn3n2)c(C)c1` [NCGC00456966-01] was 7 µM. As to `CCCNC(=O)Cn1c(C)ccc(NC(=O)Nc2ccc(OC)cc2)c1=O` [NCGC00430826-01], the IC50 came out at 6.24 µM. Under `Cc1ccc(NCc2nc3ccccc3n2CCOc2ccccc2)cc1` [NCGC00104457-01] stands 11.1 µM; under `Cc1ccc(C2Cn3nnc(C(=O)N4CCC(C(=O)Nc5ccc(F)cc5)CC4)c3CO2)cc1` (stereo not shown) [NCGC00449591-01], 11.1 µM; under `Cc1ccc(C2=CC(c3ccccc3F)n3c(nc4ccccc43)N2)cc1C` (stereo not shown) [NCGC00140809-01], 3.13 µM. Under `COCCN1CCNc2cc(Nc3cccc(OC)c3)ncc2C1` [NCGC00411124-01] stands 18 µM; under `CNc1ccc(-c2nc3ccccc3s2)cc1` [NCGC00165760-02], 0.0785 µM. The value for `COc1cccc(-c2cccc(COc3cnc4c(ccn4CC(=O)O)c3)c2)c1F` [NCGC00418177-01] was 12.8 µM; that for `CC(C)(O)CCc1ccc(C(=O)NCCSc2ccccn2)cc1` [NCGC00435911-01] was 17.6 µM; that for `O=C(NCCn1cccc1-c1nc(-c2ccc3c(c2)OCO3)no1)c1ccc(Cl)cc1` [NCGC00445582-01] was 9.89 µM. In the case of `CCn1ncc(NC(=O)Cn2ncc3cc(-c4ccc(C)cc4F)ccc32)n1` [NCGC00430893-01], the IC50 worked out at 12.4 µM. Under `Cc1cnc(CCNC(=O)Nc2ccc3c(c2)OCCO3)n1C1CC1` [NCGC00469576-01] stands 11.1 µM; under `O=C(NCc1ccco1)Nc1cccc(-c2ccc(N3CCCC3)nn2)c1` [NCGC00427562-01], 9.89 µM; under `O=C(O)c1ccccc1-c1noc(-c2ccccc2F)n1` [NCGC00183910-01], 15.7 µM. Under `COCC(=O)N1CCc2nc(C)nc(-c3ccc(OC)cc3)c2C1` [NCGC00480441-01] stands over 30 µM; under `O=C(Nc1ccccc1)Nc1ccc2n(c1=O)C[C@H]1C[C@@H]2CN(C(=O)c2ccccc2)C1` [NCGC00397999-01], 18 µM. Consider `c1c(-c2nc(C3CCOC3)no2)sc2c1CCCC2` (stereo not shown) [NCGC00443783-01], for which the IC50 was 5.56 µM. For the compound `CN(C)c1cccc(-c2ncc3c(n2)OCCN(c2ccccc2)C3=O)c1` [NCGC00413615-01], the IC50 was 12.8 µM.

Turning to `Brc1ccc(-c2cn3cc(Cc4ccccc4)sc3n2)cc1` [NCGC00102136-01], the IC50 worked out at 0.881 µM. In the case of `OCC1CCCN(c2ncnc3c2cnn3-c2ccccc2)C1` (stereo not shown) [NCGC00624837-01], the IC50 was found to be 0.394 µM. The value for `O=c1c2nc(N3CCC(c4ccccc4)CC3)ccc2ncn1C1CC1` [NCGC00414736-01] was 3.6 µM; that for `O=C(Nc1cccc(-c2ccc(N3CCOCC3)nn2)c1)Nc1cccc(Cl)c1F` [NCGC00427620-01] was 5.56 µM; that for `CC1CCCCN1c1csc2ccc(F)cc2c1=O` (stereo not shown) [NCGC00132384-01] was 8.81 µM. The value for `O=C1c2cnc(-c3cccc(CO)c3)nc2OCCN1c1cccc(C(F)(F)F)c1` [NCGC00413455-01] was 20.2 µM. The value for `Cc1ccc(CSc2nc3cccnc3n2Cc2ccc(C(=O)NCc3ccco3)cc2)cc1` [NCGC00123842-01] was 0.624 µM.

For the compound `Cc1ccc(NC(=O)Nc2ccccc2)c(=O)n1CC(=O)NCC1CCCO1` (stereo not shown) [NCGC00430764-01], the IC50 worked out at 11.1 µM. Under `Cc1ccc(OCC(=O)Nc2cccc(C(=O)OCc3cc(=O)n4nc(C)sc4n3)c2)cc1` [NCGC00130504-01] stands 7 µM; under `CCOc1nccn2c(-c3ccc(CNC(=O)CNC(C)=O)cc3)cnc12` [NCGC00413921-01], 18 µM.

With `CC(=O)NC1(C)CN(Cc2ccc(-c3ccccc3OCc3ccccc3)s2)C1` [NCGC00410438-01], the IC50 turned out to be 22.7 µM. The value for `O=C(COc1ccccc1)Nc1nnc([S+](=O)([O-])Nc2ccccc2)s1` [NCGC00120845-01] was 14 µM; that for `Cc1ccc(C)c(N2CCN(C(=O)c3ccc(NC(=O)c4nsc5ccccc45)cc3)CC2)c1` [NCGC00134456-01] was 9.89 µM; that for `COc1ccc(/C=C/c2ccc3c(c2)C(=O)N2CC[C@H](NC(=O)CCC(=O)O)[C@H]2C(=O)N3)cc1` [NCGC00391742-01] was 12.4 µM.

With `COc1ccccc1NC(=O)Cn1c(C)ccc(NC(=O)Nc2ccc(C)cc2)c1=O` [NCGC00430778-01], the IC50 was determined as 0.7 µM. Under `Cc1ccc(NC(=O)Nc2ccc(C)n(CC(=O)NCCN3CCCC3)c2=O)cc1` [NCGC00430806-01] stands 11.1 µM. Take `COc1cccc(C(=O)Nc2ccc(-c3nc4ccccc4s3)c(O)c2)c1` [NCGC00594708-01]: the IC50 was over 30 µM. Under `CC(C)Oc1ccc(C(=O)Nc2nnc3n2CCS3)cc1` [NCGC00134921-01] stands 17.6 µM; under `CC(=O)NC1(C)CCN(Cc2ccc(-c3ccc4c(ccn4C)c3)cc2)C1` (stereo not shown) [NCGC00410408-01], 7.18 µM; under `Cc1ccc(-c2nnc(SCc3ccccc3C)o2)cc1` [NCGC00103155-01], 11.1 µM.

With `Cc1ccc(C2=NOC3(CCN(C(=O)c4cccc(N(C)C)c4)CC3)N2)cc1` [NCGC00446875-01], the IC50 was 9.89 µM. Under `COc1ccc(-c2nc(-c3ccc(C(=O)O)cc3)no2)cc1` [NCGC00168104-02] stands 0.111 µM.
